Data as given in US20080279775A1, “Benztropinamine Analogs as Dopamine Uptake Inhibitors” (priority 2005, published 2008).
Structures can show the parent of a compound that is named as a salt. Where two headings read alike, the source gives them in different places.

Assays:
[1] = tested on: mice; assay: Locomotor stimulant effects (activity counts per minute); type: in vivo; settings: injected, at the most effective dose, FIG. 2
Text: In contrast, 2m produced much more modest increases in activity of around 100 counts per min.

[2] = target: T1, muscarinic M1 receptor (Rattus norvegicus, UniProt P08482); assay: [3H]Pirenzepine binding assay; settings: for Binding selectivity M1/DAT: Ki ratio; for Lower binding affinity at the M1 receptor compared to 2a: lower affinity than 2a
T1 construct: Membranes from frozen rat brains excluding cerebellum were thawed in ice-cold buffer; from tissue; host or cells: frozen rat brain (excluding cerebellum) membranes
T1 sequence (P08482 1-460): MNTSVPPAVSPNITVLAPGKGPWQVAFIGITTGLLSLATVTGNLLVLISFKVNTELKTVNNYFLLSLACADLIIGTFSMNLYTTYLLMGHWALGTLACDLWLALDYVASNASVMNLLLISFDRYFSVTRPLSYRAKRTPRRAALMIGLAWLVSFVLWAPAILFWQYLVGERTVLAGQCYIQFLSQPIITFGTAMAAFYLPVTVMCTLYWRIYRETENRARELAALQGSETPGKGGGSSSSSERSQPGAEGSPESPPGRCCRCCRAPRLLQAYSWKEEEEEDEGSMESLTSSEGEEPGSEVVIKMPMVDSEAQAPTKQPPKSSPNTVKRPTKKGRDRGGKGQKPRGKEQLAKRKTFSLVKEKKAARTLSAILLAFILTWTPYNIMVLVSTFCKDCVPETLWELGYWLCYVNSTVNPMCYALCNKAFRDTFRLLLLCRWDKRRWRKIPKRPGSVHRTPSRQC
Protocol: In order to understand the neurochemical and behavioral properties of the compounds of the present invention, exemplary benztropinamine analogs were evaluated for displacement of [^3H]WIN 35,428 (2β-carbomethoxy-3β-(4-fluorophenyl)tropane) binding to the DAT in rat caudate-putamen. These benztropinamine analogs were also evaluated for displacement of radiolabeled ligand binding at the serotonin (SERT) and norepinephrine (NET) transporters as well as the muscarinic m1 receptor (M1), Table 1, infra. The NET over DAT selectivity refers to the Ki ratio. […] The DAT selectivities of the analogs over these binding sites are depicted in Table 2.
[…] Binding Assay. Membranes from frozen rat brains excluding cerebellum were thawed in ice-cold buffer (10 mM Tris-HCl, 320 mM sucrose, pH 7.4) and homogenized with a Brinkman polytron in a volume of 10 ml/gm of tissue. The homogenate was centrifuged at 1,000×g for 10 min at 4° C. The resulting supernatant was then centrifuged at 10,000×g for 20 min at 4° C. The resulting pellet was resuspended in a volume of 200 mg/ml in 10 mM Tris buffer (pH 7.4). Ligand binding assays were conducted in tubes containing 0.5 ml of buffer (10 mM Tris-HCl, 5 mM MgCl2), 3 nM [^3H]pirenzepine (New England Nuclear, Boston, Mass.), and 20 mg of brain tissue. The reaction was started with the addition of the tissue and the tubes were incubated for 60 min in a 37° C. water bath. The incubation was terminated by the addition of 5 ml of ice-cold buffer (10 mM Tris-HCl, pH 7.4) and rapid filtration through Whatman GF/B glass fiber filter paper (presoaked in 0.5% polyethylenimine) using a Brandel Cell Harvester (Brandel Instruments, Gaithersburg, Md.). The filters were washed twice with 5 ml cold buffer, and transferred to scintillation vials to which absolute ethanol and Beckman Ready Safe was added. Quinuclidinyl benzilate (QNB), 100 μM final concentration, was used to determine non-specific binding. Data were analyzed by using GraphPad Prism software (San Diego, Calif.).

[3] = tested on: NET; type: binding, rat; settings: for Binding selectivity NET/DAT: Ki ratio
Protocol: (§1) In order to understand the neurochemical and behavioral properties of the compounds of the present invention, exemplary benztropinamine analogs were evaluated for displacement of [^3H]WIN 35,428 (2β-carbomethoxy-3β-(4-fluorophenyl)tropane) binding to the DAT in rat caudate-putamen. These benztropinamine analogs were also evaluated for displacement of radiolabeled ligand binding at the serotonin (SERT) and norepinephrine (NET) transporters as well as the muscarinic m1 receptor (M1), Table 1, infra. The NET over DAT selectivity refers to the Ki ratio. When the Ki ratio is greater than 1, the compound is DAT selective. The DAT selectivities of the analogs over these binding sites are depicted in Table 2.
(§2) [^3H]Nisoxetine Binding Assay. Membranes from frozen frontal cortex dissected from male Sprague-Dawley rats (Taconic Labs, Germantown, N.Y.) were homogenized in 20 volumes (w/v) of 50 mM Tris containing 120 mM NaCl and 5 mM KCl (pH 7.4 at 25° C.), using a Brinkman Polytron (at setting 6 for 20 sec). The tissue was centrifuged at 50,000×g for 10 min at 4° C. The resulting pellet was resuspended in buffer and recentrifuged. The final pellet was resuspended in cold buffer to a concentration of 80 mg/ml (original wet weight). Ligand binding experiments were conducted in assay tubes containing 0.5 ml buffer, 0.5 nM [3H]nisoxetine (New England Nuclear, Boston, Mass.), and 8 mg frontal cortex tissue. The reaction was started with the addition of the tissue and the tubes were incubated for 60 min at 0-4° C. The incubation was terminated by rapid filtration through Whatman GF/B filters, presoaked in 0.05% polyethylenimine, using a Brandel Cell Harvester (Brandel Instruments Gaithersburg, Md.). The filters were washed twice with 5 ml cold buffer, transferred to scintillation vials to which Beckman Ready Safe was added. Nonspecific binding was determined using 1 μM desipramine. Data were analyzed using GraphPad Prism software (San Diego, Calif.).

[4] = target: T2, DAT (Rattus norvegicus, UniProt P23977); assay: Dopamine transporter binding assay, displacement of [3H]WIN 35,428; settings: for Ki: rat caudate-putamen membranes, read-out: DAT [3H]WIN 35,428 Ki ± SEM; for Reduction of binding affinity at the DAT compared to 2a: lower affinity than 2a
T2 construct: their brains removed to an ice-cooled dish for dissection of the caudate putamen; from tissue; host or cells: rat caudate putamen membranes (fresh homogenates)

[5] = target: T3, SERT (Rattus norvegicus, UniProt P31652); assay: [3H]Citalopram binding assay; settings: for Binding selectivity SERT/DAT: Ki ratio
T3 construct: Membranes from frozen rat midbrain were homogenized; from tissue; host or cells: frozen rat midbrain membranes
Protocol: as §1
[^3H]Citalopram Binding Assay. Membranes from frozen rat midbrain were homogenized in 20 volumes (w/v) of 50 mM Tris containing 120 mM NaCl and 5 mM KCl (pH 7.4 at 25° C.), using a Brinkman Polytron (at setting 6 for 20 sec). The tissue was centrifuged at 20,000×g for 10 min at 4° C. The resulting pellet was resuspended in buffer and recentrifuged. The final pellet was resuspended in cold buffer to a concentration of 15 mg/ml (original wet weight). Ligand binding experiments were conducted in assay tubes containing 0.5 ml of buffer, 1.4 nM [^3H]citalopram (New England Nuclear, Boston Mass.), and 1.5 mg midbrain tissue. The reaction was started with the addition of the tissue and the tubes were incubated for 60 min at 25° C. (room temperature). The incubation was terminated by rapid filtration through Whatman GF/B filters (presoaked in 0.3% polyethylenimine in water) using a Brandel Cell Harvester (Brandel Instruments Gaithersburg, Md.). The filters were washed twice with 5 ml cold buffer, transferred to scintillation vials to which Beckman Ready Safe was added. Nonspecific binding was determined using 10 μM fluoxetine (RBI, Natick, Mass.). Data were analyzed using GraphPad Prism software (San Diego, Calif.).

[6] = target: NET (Rattus norvegicus, UniProt Q63380); type: binding
Protocol: as §1, §2

[7] = rat brain membranes excluding cerebellum, read-out: M1 [3H]pirenzepine Ki ± SEM
[8] = rat midbrain membranes, read-out: SERT [3H]citalopram Ki ± SEM

T3 sequence (P31652 whole entry): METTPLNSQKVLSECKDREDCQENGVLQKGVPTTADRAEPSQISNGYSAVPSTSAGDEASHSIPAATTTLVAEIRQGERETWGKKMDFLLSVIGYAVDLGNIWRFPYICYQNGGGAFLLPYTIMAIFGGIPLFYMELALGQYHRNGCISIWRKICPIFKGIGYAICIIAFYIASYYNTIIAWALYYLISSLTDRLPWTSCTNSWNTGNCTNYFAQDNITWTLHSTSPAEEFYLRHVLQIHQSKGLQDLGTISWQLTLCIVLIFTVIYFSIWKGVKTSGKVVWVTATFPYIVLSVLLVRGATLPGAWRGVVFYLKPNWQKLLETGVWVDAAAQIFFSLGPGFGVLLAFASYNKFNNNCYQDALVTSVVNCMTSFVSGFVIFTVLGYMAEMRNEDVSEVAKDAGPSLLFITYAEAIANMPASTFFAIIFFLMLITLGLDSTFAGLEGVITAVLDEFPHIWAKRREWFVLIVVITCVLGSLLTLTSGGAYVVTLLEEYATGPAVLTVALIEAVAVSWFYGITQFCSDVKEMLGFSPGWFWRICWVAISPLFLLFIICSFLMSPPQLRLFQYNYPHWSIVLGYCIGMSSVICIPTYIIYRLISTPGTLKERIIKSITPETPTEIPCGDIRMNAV
T2 sequence (P23977 whole entry): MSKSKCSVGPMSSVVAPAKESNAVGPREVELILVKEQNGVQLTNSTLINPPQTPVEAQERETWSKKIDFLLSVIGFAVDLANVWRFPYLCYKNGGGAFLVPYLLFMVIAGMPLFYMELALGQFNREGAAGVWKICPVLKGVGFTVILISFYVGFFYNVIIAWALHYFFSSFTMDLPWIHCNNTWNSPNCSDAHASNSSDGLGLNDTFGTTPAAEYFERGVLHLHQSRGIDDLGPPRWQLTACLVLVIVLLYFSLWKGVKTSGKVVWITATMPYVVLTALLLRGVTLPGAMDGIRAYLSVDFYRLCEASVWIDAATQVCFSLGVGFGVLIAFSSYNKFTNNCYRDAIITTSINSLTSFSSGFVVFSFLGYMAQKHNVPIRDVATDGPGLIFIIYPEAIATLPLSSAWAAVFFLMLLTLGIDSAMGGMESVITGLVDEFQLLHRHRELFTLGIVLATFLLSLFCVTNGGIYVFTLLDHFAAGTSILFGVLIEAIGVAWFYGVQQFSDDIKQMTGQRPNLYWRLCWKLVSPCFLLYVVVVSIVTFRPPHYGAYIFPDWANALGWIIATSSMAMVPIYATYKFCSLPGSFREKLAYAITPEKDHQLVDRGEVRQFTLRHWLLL
Chain of NET (Rattus norvegicus, UniProt Q63380) (Q63380 1-617): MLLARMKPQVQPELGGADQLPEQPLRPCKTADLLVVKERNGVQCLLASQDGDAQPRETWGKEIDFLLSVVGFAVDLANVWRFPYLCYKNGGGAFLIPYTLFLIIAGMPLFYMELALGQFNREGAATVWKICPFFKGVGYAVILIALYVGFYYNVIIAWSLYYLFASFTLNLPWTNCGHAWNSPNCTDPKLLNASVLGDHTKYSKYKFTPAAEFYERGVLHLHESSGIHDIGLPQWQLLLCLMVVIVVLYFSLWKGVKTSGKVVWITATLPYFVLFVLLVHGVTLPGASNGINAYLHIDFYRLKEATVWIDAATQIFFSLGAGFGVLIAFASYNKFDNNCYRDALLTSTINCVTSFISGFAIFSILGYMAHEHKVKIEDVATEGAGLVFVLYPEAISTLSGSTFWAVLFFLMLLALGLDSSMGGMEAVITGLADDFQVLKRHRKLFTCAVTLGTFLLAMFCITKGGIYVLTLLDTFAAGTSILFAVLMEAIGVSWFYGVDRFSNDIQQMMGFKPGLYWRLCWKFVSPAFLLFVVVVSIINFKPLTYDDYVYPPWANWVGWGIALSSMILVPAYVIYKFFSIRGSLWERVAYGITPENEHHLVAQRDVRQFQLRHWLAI

| Compound | Binding selectivity M1/DAT [2] | Ki [2, 7] [nM] | Binding selectivity NET/DAT [3] | Ki [4] [nM] | Binding selectivity SERT/DAT [5] | Ki [5, 8] [nM] | further results |
| --- | --- | --- | --- | --- | --- | --- | --- |
| CN(C(c1ccc(F)cc1)c1ccc(F)cc1)[C@H]1C[C@H]2CC[C@@H](C1)N2C (as salt: oxalate) [Compound 2c] |  |  |  |  |  |  | melting point: 227 to 228 °C |
| Fc1ccc(C(N[C@H]2C[C@H]3CC[C@@H](C2)N3)c2ccc(F)cc2)cc1 (as salt: oxalate) [Compound 2g] |  |  |  |  |  |  | melting point: 138 to 140 °C |
| Fc1ccc(C(N[C@H]2C[C@H]3CC[C@@H](C2)N3CCCCc2ccccc2)c2ccc(F)cc2)cc1 (as salt: oxalate) [Compound 2j] |  |  |  |  |  |  | melting point: 194 to 196 °C |
| Fc1ccc(C(N[C@H]2C[C@H]3CC[C@@H](C2)N3CCc2c[nH]c3ccccc23)c2ccc(F)cc2)cc1 (as salt: oxalate) [Compound 2l] |  |  |  |  |  |  | melting point: 178 to 180 °C |
| COC(=O)[C@H]1[C@@H](OC(=O)c2ccccc2)C[C@@H]2CC[C@H]1N2C [Cocaine, cocaine, reference compound] |  |  |  |  |  |  | Locomotor activity [1]: ~400 counts per min |
| CN1[C@@H]2CC[C@H]1C[C@@H](NC(c1ccc(F)cc1)c1ccc(F)cc1)C2 [Compound 2a] | 0.7 | 7.81 ± 1.17 | 160 | 11.3 ± 1.61 | 769 | 8680 ± 436 |  |
| CN1[C@@H]2CC[C@H]1C[C@H](NC(c1ccc(F)cc1)c1ccc(F)cc1)C2 [Compound 2b] | 0.1 |  | 23 | 661 ± 35 | 73 |  | Ki [2]: 59.4 ± 7.3 nM; Ki ([6]; read-out: NET [3H]nisoxetine Ki ± SEM, rat frontal cortex membranes): 15200 ± 1230 nM; Reduction of binding affinity at the DAT compared to 2a [4]: 58 fold; Ki [5]: 48500 ± 6370 nM |
| CN(C(c1ccc(F)cc1)c1ccc(F)cc1)[C@H]1C[C@H]2CC[C@@H](C1)N2C [Compound 2c] | 0.2 |  | 68 | 123 ± 15.5 | 140 |  | Ki [2]: 18.6 ± 2.48 nM; Lower binding affinity at the M1 receptor compared to 2a [2]: about 2 fold; Lower binding affinity at the NET compared to 2a ([6]; lower affinity than 2a): about 5 fold; Reduction of binding affinity at the DAT compared to 2a [4]: 11 fold; Ki [5]: 17200 ± 2460 nM; Lower binding affinity at the SERT compared to 2a ([5]; lower affinity than 2a): about 2 fold |
| CN1[C@@H]2CC[C@H]1C[C@@H](NC(c1ccc(Cl)cc1)c1ccc(Cl)cc1)C2 [Compound 2d] |  | 50 ± 7.1 |  |  |  | 4180 ± 623 | Reduction of binding affinity at the DAT compared to 2a [4]: around 3 fold |
| CN1[C@@H]2CC[C@H]1C[C@@H](NC(c1ccccc1)c1ccc(Cl)cc1)C2 (some centres unmarked) [Compound 2e] | 0.3 | 9.3 ± 0.27 | 87 | 36.5 ± 0.66 | 373 | 13600 ± 1040 | Reduction of binding affinity at the DAT compared to 2a [4]: around 3 fold |
| CN1[C@@H]2CC[C@H]1C[C@@H](NC(c1ccc(Cl)c(Cl)c1)c1ccc(Cl)c(Cl)c1)C2 [Compound 2f] | 3 | 17.8 ± 2.27 | 48 | 5.35 ± 0.25 | 563 | 3010 ± 332 | Reduction of NET over DAT selectivity compared to 2a ([3]; compared to 2a): 3 fold; Higher binding affinity at the DAT compared to 2a ([4]; higher affinity than 2a): 2 fold |
| Fc1ccc(C(N[C@H]2C[C@H]3CC[C@@H](C2)N3)c2ccc(F)cc2)cc1 [Compound 2g] | 18 | 154 ± 19.6 | 118 | 8.45 ± 0.23 | 491 | 4150 ± 368 |  |
| C=CCN1[C@@H]2CC[C@H]1C[C@@H](NC(c1ccc(F)cc1)c1ccc(F)cc1)C2 [Compound 2h] | 5 | 130 ± 10.5 | 208 | 26.8 ± 3.43 | 146 | 3920 ± 581 |  |
| CCCCN1[C@@H]2CC[C@H]1C[C@@H](NC(c1ccc(F)cc1)c1ccc(F)cc1)C2 [Compound 2i] | 21 | 454 ± 36.7 | 136 | 21.5 ± 2.31 | 123 | 2640 ± 27.6 |  |
| Fc1ccc(C(N[C@H]2C[C@H]3CC[C@@H](C2)N3CCCCc2ccccc2)c2ccc(F)cc2)cc1 [Compound 2j] | 37 | 438 ± 56.2 | 139 | 11.7 ± 0.39 | 43 | 502 ± 68.1 |  |
| NCCN1[C@@H]2CC[C@H]1C[C@@H](NC(c1ccc(F)cc1)c1ccc(F)cc1)C2 [Compound 2k] |  | 2110 ± 119 |  | 12.5 ± 1.73 |  |  | Lower binding affinity at the M1 receptor compared to 2a [2]: 170 fold |
| Fc1ccc(C(N[C@H]2C[C@H]3CC[C@@H](C2)N3CCc2c[nH]c3ccccc23)c2ccc(F)cc2)cc1 [Compound 2l] |  | 413 ± 6.55 |  |  |  | 347 ± 41.3 | Reduction of binding affinity at the DAT compared to 2a [4]: 6 fold |
